Where “and” joins values, the source holds several entries; their conditions need not be identical. Equal entries are not always repeated. Values belong to the compound of their own block, whether it stands above or below them.
Columns and labels:
[1] = system: EGFR (human), P00533 [G719S]; assay: KINOMEscan competition binding; conditions: compound 10.0 µM
[2] = system: EGFR (human), P00533 [P753S; 747-752 del]; assay: KINOMEscan competition binding; conditions: compound 10.0 µM
PLK3 (human) = PLK3 (human) (UniProt Q9H4B4); assay: KINOMEscan competition binding; conditions: compound 10.0 µM
Sequence of PLK3 (human) (Q9H4B4 whole entry, looked up): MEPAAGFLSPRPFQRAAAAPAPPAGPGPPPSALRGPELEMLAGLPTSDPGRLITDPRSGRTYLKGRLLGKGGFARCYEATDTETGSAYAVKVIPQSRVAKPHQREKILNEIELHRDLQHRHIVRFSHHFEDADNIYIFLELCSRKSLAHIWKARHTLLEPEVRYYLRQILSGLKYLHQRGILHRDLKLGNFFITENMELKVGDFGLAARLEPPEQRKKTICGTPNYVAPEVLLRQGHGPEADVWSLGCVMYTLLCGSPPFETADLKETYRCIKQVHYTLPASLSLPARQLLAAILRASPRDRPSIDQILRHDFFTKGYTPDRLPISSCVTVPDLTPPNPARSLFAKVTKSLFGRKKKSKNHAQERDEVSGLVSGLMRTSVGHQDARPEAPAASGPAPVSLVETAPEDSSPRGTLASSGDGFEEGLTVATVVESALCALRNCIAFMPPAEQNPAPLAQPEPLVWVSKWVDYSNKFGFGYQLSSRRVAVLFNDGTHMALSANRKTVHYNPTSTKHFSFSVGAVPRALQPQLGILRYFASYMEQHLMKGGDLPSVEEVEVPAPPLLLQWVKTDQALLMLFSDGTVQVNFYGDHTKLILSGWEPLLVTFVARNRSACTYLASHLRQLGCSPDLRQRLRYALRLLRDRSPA

[3] = system: EGFR (human), P00533 [752-759 del]; assay: KINOMEscan competition binding; conditions: compound 10.0 µM
[4] = system: EGFR (human), P00533 [A750P; 747-749 del]; assay: KINOMEscan competition binding; conditions: compound 10.0 µM
TTK (human) [5] = molecular target: TTK (human) (UniProt P33981); assay: KINOMEscan competition binding; conditions: for kinase still bound, per cent of control: compound 10.0 µM
Sequence of TTK (human) (P33981 whole entry, looked up): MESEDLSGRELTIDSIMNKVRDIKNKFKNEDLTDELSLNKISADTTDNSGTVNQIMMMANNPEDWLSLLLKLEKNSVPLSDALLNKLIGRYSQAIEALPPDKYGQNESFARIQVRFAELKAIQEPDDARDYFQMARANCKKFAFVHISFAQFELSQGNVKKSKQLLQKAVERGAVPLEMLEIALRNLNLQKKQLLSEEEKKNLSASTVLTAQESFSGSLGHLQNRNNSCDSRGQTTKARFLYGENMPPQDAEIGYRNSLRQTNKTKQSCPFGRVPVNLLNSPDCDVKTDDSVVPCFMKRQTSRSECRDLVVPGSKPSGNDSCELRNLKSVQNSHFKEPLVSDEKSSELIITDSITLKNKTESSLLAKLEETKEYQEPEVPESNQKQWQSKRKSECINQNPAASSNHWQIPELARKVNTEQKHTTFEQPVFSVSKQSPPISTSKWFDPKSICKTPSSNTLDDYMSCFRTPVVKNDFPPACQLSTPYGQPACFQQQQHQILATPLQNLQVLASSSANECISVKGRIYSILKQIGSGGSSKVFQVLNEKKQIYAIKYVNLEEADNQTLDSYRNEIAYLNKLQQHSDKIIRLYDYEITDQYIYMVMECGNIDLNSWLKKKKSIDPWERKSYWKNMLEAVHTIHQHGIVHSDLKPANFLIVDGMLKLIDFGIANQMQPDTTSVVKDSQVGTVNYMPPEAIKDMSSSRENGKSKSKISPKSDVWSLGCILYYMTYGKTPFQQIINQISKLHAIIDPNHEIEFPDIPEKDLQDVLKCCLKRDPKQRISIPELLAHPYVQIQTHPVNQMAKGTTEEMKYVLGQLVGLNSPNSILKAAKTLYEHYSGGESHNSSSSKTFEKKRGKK

[6] = system: EGFR (human), P00533 [G719C; 746-750 del]; assay: KINOMEscan competition binding; conditions: compound 10.0 µM
PLK1 (human) = PLK1 (human) (UniProt P53350); assay: KINOMEscan competition binding; conditions: compound 10.0 µM
Sequence of PLK1 (human) (P53350 whole entry, looked up): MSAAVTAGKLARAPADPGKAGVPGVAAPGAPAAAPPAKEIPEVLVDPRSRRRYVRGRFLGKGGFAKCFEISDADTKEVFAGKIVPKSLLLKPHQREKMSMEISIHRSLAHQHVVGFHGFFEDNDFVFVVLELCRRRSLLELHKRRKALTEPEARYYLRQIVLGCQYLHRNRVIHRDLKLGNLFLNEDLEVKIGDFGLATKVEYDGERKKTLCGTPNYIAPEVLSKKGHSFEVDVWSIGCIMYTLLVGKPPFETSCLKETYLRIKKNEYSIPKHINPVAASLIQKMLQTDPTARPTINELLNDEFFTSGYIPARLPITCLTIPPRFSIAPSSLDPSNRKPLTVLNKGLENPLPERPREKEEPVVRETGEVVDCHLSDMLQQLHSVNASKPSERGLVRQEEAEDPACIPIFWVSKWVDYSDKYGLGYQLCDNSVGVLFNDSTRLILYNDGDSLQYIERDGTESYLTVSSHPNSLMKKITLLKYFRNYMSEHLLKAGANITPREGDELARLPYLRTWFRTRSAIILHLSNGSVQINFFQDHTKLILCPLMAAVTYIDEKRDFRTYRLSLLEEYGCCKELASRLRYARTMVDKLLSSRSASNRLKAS

[7] = system: EGFR (human), P00533 [747-751 del / S ins]; assay: KINOMEscan competition binding; conditions: compound 10.0 µM
[8] = system: EGFR (human), P00533 [L861Q]; assay: KINOMEscan competition binding; conditions: compound 10.0 µM
PTK2B (human) = PTK2B (human) (UniProt Q14289); assay: KINOMEscan competition binding; conditions: compound 10.0 µM
Sequence of PTK2B (human) (Q14289 whole entry, looked up): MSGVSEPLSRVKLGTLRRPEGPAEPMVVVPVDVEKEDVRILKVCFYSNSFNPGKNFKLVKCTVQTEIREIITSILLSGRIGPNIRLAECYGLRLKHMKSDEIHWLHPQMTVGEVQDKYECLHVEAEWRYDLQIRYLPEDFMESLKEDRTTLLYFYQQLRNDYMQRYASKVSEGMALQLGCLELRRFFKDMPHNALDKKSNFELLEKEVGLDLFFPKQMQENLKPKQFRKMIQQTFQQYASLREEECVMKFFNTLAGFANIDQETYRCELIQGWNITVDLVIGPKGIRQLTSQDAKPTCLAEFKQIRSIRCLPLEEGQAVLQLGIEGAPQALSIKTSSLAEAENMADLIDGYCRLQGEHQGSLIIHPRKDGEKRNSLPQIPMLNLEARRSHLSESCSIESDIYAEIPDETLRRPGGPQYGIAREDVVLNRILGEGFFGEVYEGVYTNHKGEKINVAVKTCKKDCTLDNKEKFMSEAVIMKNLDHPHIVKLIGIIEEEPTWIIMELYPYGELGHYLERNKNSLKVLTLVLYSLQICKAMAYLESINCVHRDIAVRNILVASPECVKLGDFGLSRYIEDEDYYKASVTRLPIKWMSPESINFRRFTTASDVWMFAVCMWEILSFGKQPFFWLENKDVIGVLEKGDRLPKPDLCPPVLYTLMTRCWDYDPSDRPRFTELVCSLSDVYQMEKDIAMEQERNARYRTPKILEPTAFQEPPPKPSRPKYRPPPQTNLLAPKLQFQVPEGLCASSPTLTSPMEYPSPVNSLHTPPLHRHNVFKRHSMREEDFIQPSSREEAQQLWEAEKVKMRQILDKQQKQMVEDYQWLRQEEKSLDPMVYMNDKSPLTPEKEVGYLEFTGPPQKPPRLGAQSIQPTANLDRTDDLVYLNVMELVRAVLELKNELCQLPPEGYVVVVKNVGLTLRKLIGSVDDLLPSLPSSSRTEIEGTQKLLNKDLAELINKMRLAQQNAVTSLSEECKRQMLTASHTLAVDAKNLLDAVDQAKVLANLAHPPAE

GAK (human) = GAK (human) (UniProt O14976); assay: KINOMEscan competition binding; conditions: compound 10.0 µM
Sequence of GAK (human) (O14976 whole entry, looked up): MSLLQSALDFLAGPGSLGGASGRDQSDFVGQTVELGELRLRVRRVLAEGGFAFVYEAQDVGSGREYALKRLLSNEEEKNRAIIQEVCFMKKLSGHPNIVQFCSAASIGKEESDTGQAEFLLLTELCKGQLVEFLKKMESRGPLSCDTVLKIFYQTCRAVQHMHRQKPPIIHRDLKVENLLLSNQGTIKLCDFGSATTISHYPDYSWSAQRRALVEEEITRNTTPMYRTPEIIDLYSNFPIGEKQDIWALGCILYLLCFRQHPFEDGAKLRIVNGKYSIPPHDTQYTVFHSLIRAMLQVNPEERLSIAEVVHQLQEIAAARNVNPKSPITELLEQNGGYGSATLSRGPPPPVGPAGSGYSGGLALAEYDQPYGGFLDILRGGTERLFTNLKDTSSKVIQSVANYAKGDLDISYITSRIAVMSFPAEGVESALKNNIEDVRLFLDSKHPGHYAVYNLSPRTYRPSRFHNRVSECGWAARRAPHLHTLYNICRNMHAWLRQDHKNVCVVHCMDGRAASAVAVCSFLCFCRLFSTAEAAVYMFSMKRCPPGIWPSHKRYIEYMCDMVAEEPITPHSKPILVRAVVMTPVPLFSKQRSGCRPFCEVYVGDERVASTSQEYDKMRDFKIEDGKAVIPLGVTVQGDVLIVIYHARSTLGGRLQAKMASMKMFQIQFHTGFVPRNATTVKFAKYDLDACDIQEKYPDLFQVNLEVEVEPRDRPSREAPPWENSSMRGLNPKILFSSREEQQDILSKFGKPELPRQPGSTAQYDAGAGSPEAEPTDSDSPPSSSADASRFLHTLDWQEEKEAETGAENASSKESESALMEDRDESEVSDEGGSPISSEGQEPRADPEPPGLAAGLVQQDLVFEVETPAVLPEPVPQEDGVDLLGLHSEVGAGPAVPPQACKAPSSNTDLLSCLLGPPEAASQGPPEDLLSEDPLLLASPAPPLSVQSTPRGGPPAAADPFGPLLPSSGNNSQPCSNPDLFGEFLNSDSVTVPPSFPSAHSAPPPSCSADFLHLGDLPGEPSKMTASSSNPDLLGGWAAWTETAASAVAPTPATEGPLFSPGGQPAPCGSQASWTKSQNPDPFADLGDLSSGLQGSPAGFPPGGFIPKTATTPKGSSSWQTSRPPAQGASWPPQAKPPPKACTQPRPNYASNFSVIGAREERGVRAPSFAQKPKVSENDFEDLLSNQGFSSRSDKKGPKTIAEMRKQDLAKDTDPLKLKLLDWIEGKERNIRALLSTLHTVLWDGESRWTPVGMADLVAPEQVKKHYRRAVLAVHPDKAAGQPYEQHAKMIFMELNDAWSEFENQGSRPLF

EGFR (human) = EGFR (human) (UniProt P00533); assay: KINOMEscan competition binding; conditions: compound 10.0 µM
[9] = system: EGFR (human), P00533 [L858R]; assay: KINOMEscan competition binding; conditions: compound 10.0 µM
PTK2 (human) = PTK2 (human) (UniProt Q05397); assay: KINOMEscan competition binding; conditions: compound 10.0 µM
[10] = molecular target: TYK2 JH2 pseudokinase (human) (UniProt P29597); assay: KINOMEscan competition binding; conditions: compound 10.0 µM
SLK (human) = SLK (human) (UniProt Q9H2G2); assay: KINOMEscan competition binding; conditions: compound 10.0 µM
CSF1R (human) = CSF1R (human) (UniProt P07333); assay: KINOMEscan competition binding; conditions: compound 10.0 µM
PDGFRB (human) = PDGFRB (human) (UniProt P09619); assay: KINOMEscan competition binding; conditions: compound 10.0 µM
CHEK1 (human) = CHEK1 (human) (UniProt O14757); assay: KINOMEscan competition binding; conditions: compound 10.0 µM
LCK (human) = LCK (human) (UniProt P06239); assay: KINOMEscan competition binding; conditions: compound 10.0 µM
SRPK3 (human) = SRPK3 (human) (UniProt Q9UPE1); assay: KINOMEscan competition binding; conditions: compound 10.0 µM
[11] = system: ABL1 (human), P00519 [F317L]; assay: KINOMEscan competition binding; conditions: compound 10.0 µM
[12] = system: FLT3 (human), P36888 [D835Y]; assay: KINOMEscan competition binding; conditions: compound 10.0 µM
[13] = system: KIT (human), P10721 [D816V]; assay: KINOMEscan competition binding; conditions: compound 10.0 µM
[14] = system: FLT3 (human), P36888 [D835H]; assay: KINOMEscan competition binding; conditions: compound 10.0 µM
ULK1 (human) = ULK1 (human) (UniProt O75385); assay: KINOMEscan competition binding; conditions: compound 10.0 µM
RIOK1 (human) = RIOK1 (human) (UniProt Q9BRS2); assay: KINOMEscan competition binding; conditions: compound 10.0 µM
[15] = system: FLT3 (human), P36888 [N841I]; assay: KINOMEscan competition binding; conditions: compound 10.0 µM
RIOK3 (human) = RIOK3 (human) (UniProt O14730); assay: KINOMEscan competition binding; conditions: compound 10.0 µM
KIT (human) = KIT (human) (UniProt P10721); assay: KINOMEscan competition binding; conditions: compound 10.0 µM
RPS6KA6 KD2 (human) = RPS6KA6 KD2 (human) (UniProt Q9UK32); assay: KINOMEscan competition binding; conditions: compound 10.0 µM
[16] = system: KIT (human), P10721 [V559D]; assay: KINOMEscan competition binding; conditions: compound 10.0 µM
SIK2 (human) = SIK2 (human) (UniProt Q9H0K1); assay: KINOMEscan competition binding; conditions: compound 10.0 µM
SIK1 (human) = SIK1 (human) (UniProt P57059); assay: KINOMEscan competition binding; conditions: compound 10.0 µM
[17] = system: ABL1 (human), P00519 [F317I]; assay: KINOMEscan competition binding; conditions: compound 10.0 µM
SRPK1 (human) = SRPK1 (human) (UniProt Q96SB4); assay: KINOMEscan competition binding; conditions: compound 10.0 µM
PIP5K1A (human) = PIP5K1A (human) (UniProt Q99755); assay: KINOMEscan competition binding; conditions: compound 10.0 µM
BLK (human) = BLK (human) (UniProt P51451); assay: KINOMEscan competition binding; conditions: compound 10.0 µM
FRK (human) = FRK (human) (UniProt P42685); assay: KINOMEscan competition binding; conditions: compound 10.0 µM
TNK2 (human) = TNK2 (human) (UniProt Q07912); assay: KINOMEscan competition binding; conditions: compound 10.0 µM
BMP2K (human) = BMP2K (human) (UniProt Q9NSY1); assay: KINOMEscan competition binding; conditions: compound 10.0 µM
RPS6KA1 KD2 (human) = RPS6KA1 KD2 (human) (UniProt Q15418); assay: KINOMEscan competition binding; conditions: compound 10.0 µM
[18] = system: FLT3 (human), P36888 [ITD]; assay: KINOMEscan competition binding; conditions: compound 10.0 µM
TTK (human) [19] = molecular target: TTK (human) (UniProt P33981); assay: SelectScreen, TR FRET
DCLK1 (human) = DCLK1 (human) (UniProt O15075); assay: KINOMEscan competition binding; conditions: compound 10.0 µM
ULK2 (human) = ULK2 (human) (UniProt Q8IYT8); assay: KINOMEscan competition binding; conditions: compound 10.0 µM
INSRR (human) = INSRR (human) (UniProt P14616); assay: KINOMEscan competition binding; conditions: compound 10.0 µM
ALK (human) = ALK (human) (UniProt Q9UM73); assay: KINOMEscan competition binding; conditions: compound 10.0 µM
DAPK2 (human) = DAPK2 (human) (UniProt Q9UIK4); assay: KINOMEscan competition binding; conditions: compound 10.0 µM
MET (human) = MET (human) (UniProt P08581); assay: KINOMEscan competition binding; conditions: compound 10.0 µM
PLK4 (human) = PLK4 (human) (UniProt O00444); assay: KINOMEscan competition binding; conditions: compound 10.0 µM
IGF1R (human) = IGF1R (human) (UniProt P08069); assay: KINOMEscan competition binding; conditions: compound 10.0 µM
MKNK2 (human) = MKNK2 (human) (UniProt Q9HBH9); assay: KINOMEscan competition binding; conditions: compound 10.0 µM
FER (human) = FER (human) (UniProt P16591); assay: KINOMEscan competition binding; conditions: compound 10.0 µM
INSR (human) = INSR (human) (UniProt P06213); assay: KINOMEscan competition binding; conditions: compound 10.0 µM
MYLK (human) = MYLK (human) (UniProt Q15746); assay: KINOMEscan competition binding; conditions: compound 10.0 µM
CAMKK2 (human) = CAMKK2 (human) (UniProt Q96RR4); assay: KINOMEscan competition binding; conditions: compound 10.0 µM
Sequence of CAMKK2 (human) (Q96RR4 whole entry, looked up): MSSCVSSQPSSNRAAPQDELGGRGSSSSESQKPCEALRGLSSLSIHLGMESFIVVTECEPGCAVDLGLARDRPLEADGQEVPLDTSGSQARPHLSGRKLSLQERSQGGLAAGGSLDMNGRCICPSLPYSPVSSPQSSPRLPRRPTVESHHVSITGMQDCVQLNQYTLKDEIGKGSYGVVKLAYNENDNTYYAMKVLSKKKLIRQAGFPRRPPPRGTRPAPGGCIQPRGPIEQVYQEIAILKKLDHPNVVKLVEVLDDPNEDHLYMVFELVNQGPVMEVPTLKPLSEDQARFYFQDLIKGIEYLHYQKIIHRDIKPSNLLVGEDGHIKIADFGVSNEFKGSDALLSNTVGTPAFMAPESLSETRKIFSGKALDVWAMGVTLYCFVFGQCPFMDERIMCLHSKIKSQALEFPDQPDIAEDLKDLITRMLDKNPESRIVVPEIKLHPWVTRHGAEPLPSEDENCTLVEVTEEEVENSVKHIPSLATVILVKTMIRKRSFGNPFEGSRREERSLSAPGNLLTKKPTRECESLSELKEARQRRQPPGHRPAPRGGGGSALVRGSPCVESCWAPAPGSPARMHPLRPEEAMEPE

TNK1 (human) = TNK1 (human) (UniProt Q13470); assay: KINOMEscan competition binding; conditions: compound 10.0 µM
STK33 (human) = STK33 (human) (UniProt Q9BYT3); assay: KINOMEscan competition binding; conditions: compound 10.0 µM
FGFR4 (human) = FGFR4 (human) (UniProt P22455); assay: KINOMEscan competition binding; conditions: compound 10.0 µM
DAPK3 (human) = DAPK3 (human) (UniProt O43293); assay: KINOMEscan competition binding; conditions: compound 10.0 µM
RPS6KA2 KD2 (human) = RPS6KA2 KD2 (human) (UniProt Q15349); assay: KINOMEscan competition binding; conditions: compound 10.0 µM

kinase still bound, per cent of control [1]: 23%
kinase still bound, per cent of control [2]: 15%
kinase still bound, per cent of control (PLK3 (human)): 21%
kinase still bound, per cent of control [3]: 21%
kinase still bound, per cent of control [4]: 21%
kinase still bound, per cent of control (TTK (human) [5]): 5%
kinase still bound, per cent of control [6]: 30%
kinase still bound, per cent of control (PLK1 (human)): 1.2%
kinase still bound, per cent of control [7]: 12%
kinase still bound, per cent of control [8]: 25%
kinase still bound, per cent of control (PTK2B (human)): 22%
kinase still bound, per cent of control (GAK (human)): 2%
kinase still bound, per cent of control (EGFR (human)): 24%
kinase still bound, per cent of control [9]: 30%
kinase still bound, per cent of control (PTK2 (human)): 19%
Structure (SMILES): COc1cc(N2CCC(O)CC2)ccc1Nc1ncc2c(n1)N(c1ccccc1)CCC(=O)N2C

kinase still bound, per cent of control [10]: 28%
kinase still bound, per cent of control (SLK (human)): 29%
kinase still bound, per cent of control (CSF1R (human)): 16%
kinase still bound, per cent of control [2]: 17%
kinase still bound, per cent of control (PDGFRB (human)): 1.1%
kinase still bound, per cent of control (CHEK1 (human)): 27%
kinase still bound, per cent of control (LCK (human)): 25%
kinase still bound, per cent of control (SRPK3 (human)): 30%
kinase still bound, per cent of control [3]: 14%
kinase still bound, per cent of control [4]: 5.2%
kinase still bound, per cent of control [11]: 16%
kinase still bound, per cent of control [12]: 8.6%
kinase still bound, per cent of control [13]: 2.4%
kinase still bound, per cent of control [14]: 18%
kinase still bound, per cent of control [6]: 12%
kinase still bound, per cent of control (ULK1 (human)): 24%
kinase still bound, per cent of control (RIOK1 (human)): 27%
kinase still bound, per cent of control [15]: 23%
kinase still bound, per cent of control (RIOK3 (human)): 23%
kinase still bound, per cent of control (KIT (human)): 5.7%
kinase still bound, per cent of control (RPS6KA6 KD2 (human)): 18%
kinase still bound, per cent of control [7]: 11%
kinase still bound, per cent of control [8]: 21%
kinase still bound, per cent of control [16]: 4.6%
kinase still bound, per cent of control (SIK2 (human)): 26%
kinase still bound, per cent of control (GAK (human)): 2%
kinase still bound, per cent of control (SIK1 (human)): 12%
kinase still bound, per cent of control [9]: 31%
kinase still bound, per cent of control [17]: 17%
kinase still bound, per cent of control (SRPK1 (human)): 29%
kinase still bound, per cent of control (PIP5K1A (human)): 34%
kinase still bound, per cent of control (BLK (human)): 21%
kinase still bound, per cent of control (FRK (human)): 2.8%
kinase still bound, per cent of control (TNK2 (human)): 5%
kinase still bound, per cent of control (BMP2K (human)): 15%
kinase still bound, per cent of control (RPS6KA1 KD2 (human)): 33%
kinase still bound, per cent of control [18]: 31%
Structure (SMILES): COc1cc(N2CCN(C)CC2)ccc1Nc1ncc2c(n1)N(c1ccccc1)CCC(=O)N2

IC50 (TTK (human) [19]): 0.254 µM
kinase still bound, per cent of control [1]: 14%
kinase still bound, per cent of control (SLK (human)): 31%
kinase still bound, per cent of control [2]: 6.6%
kinase still bound, per cent of control (DCLK1 (human)): 20%
kinase still bound, per cent of control (ULK2 (human)): 26%
kinase still bound, per cent of control (INSRR (human)): 30%
kinase still bound, per cent of control (ALK (human)): 22%
kinase still bound, per cent of control (PLK3 (human)): 1.8%
kinase still bound, per cent of control (DAPK2 (human)): 29%
kinase still bound, per cent of control [3]: 10%
kinase still bound, per cent of control [4]: 4%
kinase still bound, per cent of control (MET (human)): 9.1%
kinase still bound, per cent of control (PLK4 (human)): 8.2%
kinase still bound, per cent of control (IGF1R (human)): 14%
Kd (TTK (human) [5]): 0.0205 µM
kinase still bound, per cent of control (TTK (human) [5]): 3.8%
kinase still bound, per cent of control (MKNK2 (human)): 13%
kinase still bound, per cent of control [6]: 10%
kinase still bound, per cent of control (FER (human)): 18%
kinase still bound, per cent of control (INSR (human)): 28%
kinase still bound, per cent of control (PLK1 (human)): 0.2%
kinase still bound, per cent of control [7]: 6.2%
kinase still bound, per cent of control [8]: 6.6%
kinase still bound, per cent of control (PTK2B (human)): 3.1%
kinase still bound, per cent of control (MYLK (human)): 31%
kinase still bound, per cent of control (CAMKK2 (human)): 20%
kinase still bound, per cent of control (GAK (human)): 1.2%
kinase still bound, per cent of control (EGFR (human)): 17% and 29%
kinase still bound, per cent of control [9]: 17%
kinase still bound, per cent of control (TNK1 (human)): 11%
kinase still bound, per cent of control (PTK2 (human)): 6.2%
kinase still bound, per cent of control (STK33 (human)): 12%
kinase still bound, per cent of control (FGFR4 (human)): 34%
kinase still bound, per cent of control (DAPK3 (human)): 34%
kinase still bound, per cent of control (RPS6KA2 KD2 (human)): 30%
Structure (SMILES): COc1cc(N2CCC(C)(O)CC2)ccc1Nc1ncc2c(n1)N(C1CCCC1)CCC(=O)N2C

Reference: the kinase profiling compilation of Christmann-Franck et al. (2016)
